Measurements published in US8927530B2, “Therapeutic combination comprising a PLK1 inhibitor and an antineoplastic agent” (priority 2009, dated 2015).
Where two headings read alike, the source gives them in different places.

How the values were obtained:
[1] = test system: HT29 human colon cancer tumors; settings: for T-C: delay to reach 1 g tumor
Experimental: Balb, Nu/Nu male mice, from Harlan (Italy), were maintained, in agreement with the European Communities Council Directive no.
(§1) Fragments of HT29 human colon cancer tumors were implanted subcutaneously. The treatment started when tumors were palpable. […] Tumor growth and body weight were measured every 3 days. Tumor growth was assessed by caliper. The two diameters were recorded and the tumor weight was calculated according to the following formula: length (mm)×width^2/2. […] This delay (T-C value) was defined as the difference of time (in days) required for the treatment group (T) and the control group (C) tumors to reach a predetermined size (1 g). Sinergy was identified when T-C of drug combination is >of addition of T-C value of single agents.
(§2) Toxicity was evaluated on the basis of body weigh reduction.

[2] = test system: AML-PS acute myeloid leukaemia cells; settings: for Median Survival Time: Control 34
Experimental: SCID female mice, from Harlan (Italy), were maintained, in agreement with the European Communities Council Directive no. […] 5×10^6 in 0.2 ml AML-PS acute myeloid leukaemia cells were injected intravenously in mice.
Cytarabine was administered by intraperitoneal route at the dose of 75 mg/kg on days 2, 3, 4, 5, 6, 14, 15, 16, 17, 18, 26, 27, 28, 29, 30, 38, 39, 40, 41 42. […] Body weight was measured every 3 days. The effect of the antitumor treatment was evaluated determining the Median Survival Time of treated animals respect to control group.

[3] = test system: HT29 human colon cancer tumors; assay: In vivo activity of combination with bevacizumab, HT29 tumors implanted subcutaneously; settings: for T-C: delay to reach 1 g tumor
[4] = test system: HT29 human colon cancer tumors; settings: for T-C: delay to reach 1 g tumor; remark: listed apart in the source
Experimental: as §1, with “Balb, Nu/Nu male mice, from Harlan (Italy), were maintained, in agreement with the European Communities Council Directive no. […] Fragments” for “Fragments”, “single agents, additivity is identified when T-C value of drug combination is equal to addition of T-C value of single” for “single”
as §2

[5] = male, Balb Nu/Nu, mouse, in vivo, po, 45 mg/kg
[6] = Compound of formula (I) 45 mg/kg oral, day 2, 3, 4, 6, 7, 8

CCc1c2c(nc3ccc(OC(=O)N4CCC(N5CCCCC5)CC4)cc13)-c1cc3c(c(=O)n1C2)COC(=O)[C@]3(O)CC [CPT11, reference compound]
T-C ([1]; CPT11 45 mg/kg intravenous, days 1, 5, 9): 12.3 days

Nc1ccn([C@@H]2O[C@H](CO)[C@@H](O)[C@@H]2O)c(=O)n1 [Cytarabine, cytarabine, reference compound]
Median Survival Time ([2]; cytarabine 75 mg/kg intraperitoneal, days 2-6, 14-18, 26-30, 38-42): 66.5

bevacizumab [reference compound]
Toxicity ([3]; Bevacizumab 20 mg/kg, intravenous route (footnote), days 1, 5, 9, 13, body weight reduction): 0/7 | T-C ([3]; Bevacizumab 20 mg/kg, intravenous route (footnote), days 1, 5, 9, 13): 4.7 days

CN1CCN(c2ccc(OC(F)(F)F)c(Nc3ncc4c(n3)-c3c(c(C(N)=O)nn3CCO)CC4)c2)CC1 [Compound of formula (I)]
T-C ([3]; Compound of formula (I) 45 mg/kg oral, day 2, 3, 4, 6, 7, 8, 10, 11, 12): 8.5 days | T-C ([3]; Compound of formula (I) 60 mg/kg oral, day 2, 3, 4, 6, 7, 8, 10, 11, 12): 16.8 days | Toxicity [3, 5]: 0/7 | Toxicity ([3]; male, Balb Nu/Nu, mouse, in vivo, po, 60 mg/kg): 0/7 | Median Survival Time ([2]; Compound of formula (I) 120 mg/kg oral, day 2, 3, 14, 15, 26, 27, 38, 39): 49.5 | Toxicity ([2]; female, SCID, mouse, in vivo, po, 120 mg/kg): 0/7 | T-C [4, 6]: 10.3 days | Toxicity [4, 5]: 0/7 | T-C [1, 6]: 10.3 days | Toxicity [1, 5]: 0/7

O=c1[nH]cc(F)c(=O)[nH]1 [5FU, 5-fluorouracil, reference compound]
T-C ([4]; 5FU 50 mg/kg intravenous, days 1, 5, 9): 11.4 days
